We go through 40 compounds from ChEMBL document CHEMBL4613209, “Quinolone hybrids and their anti-cancer activities: An overview” (Eur J Med Chem, 2019).

Common to all, as to assay type: functional, cell-based
Assay [1] deals with HL-60. The experiment in a line: Cytotoxicity against human HL60 cells assessed as reduction in cell viability.
A further assay relates to CHO. The experiment in a line: Cytotoxicity against CHO cells assessed as reduction in cell viability. The note with it: Cricetulus griseus.
In assay [2] the test system is L1210. In words: Cytotoxicity against mouse L1210 cells assessed as reduction in cell viability.
Assay [3] concerns L1210. The experiment in a line: Antiproliferative activity against mouse L1210 cells after 24 to 72 hrs by MTT assay.
The next assay relates to Hep 3B2. In words: Antiproliferative activity against human Hep3B cells after 24 to 72 hrs by MTT assay.
The test system of another assay is SMMC-7721. The experiment in a line: Antiproliferative activity against human SMMC7721 cells after 24 to 72 hrs by MTT assay.
Assay [4] concerns HL-60. The experiment in a line: Antiproliferative activity against human HL60 cells after 24 to 72 hrs by MTT assay.

Structures are written as SMILES.

As to `O=C(N/N=C/c1ccc(F)cc1)c1cn(C2CC2)c2cc(N/N=C/c3ccc(F)cc3)c(F)cc2c1=O`, the IC50 with HL-60 [1], in the assay with CHO and in the assay on L1210 [2] was 1.5 to 23.5 µM throughout.
For the compound `O=C(N/N=C/c1ccc2c(c1)OCO2)c1cn(C2CC2)c2cc(N/N=C/c3ccc4c(c3)OCO4)c(F)cc2c1=O`, the IC50 in the assay on HL-60 [1], with CHO and with L1210 [2] was 1.5 to 23.5 µM throughout.
For the compound `C[C@H]1COc2c(N3CCN(C)CC3)c(F)cc3c(=O)c(-c4nn5c(-c6cn(C7CC7)c7cc(N8CCNCC8)c(F)cc7c6=O)nnc5s4)cn1c23`, the half-maximal inhibitory concentration (IC50) in the assay on HL-60 [1], with CHO and in the assay on L1210 [2] was 0.12 to 5.2 µM each time.
As for `CN1CCN(c2cc3c(cc2F)c(=O)c(-c2nn4c(-c5cn(C6CC6)c6cc(N7CCNCC7)c(F)cc6c5=O)nnc4s2)cn3C2CC2)CC1`, the IC50 in the assay on HL-60 [1], in the assay on CHO and in the assay with L1210 [2] was 0.12 to 5.2 µM throughout.
Turning to `COc1ccc(/C=N/NC(=O)c2cn(C3CC3)c3cc(N/N=C/c4ccc(OC)cc4)c(F)cc3c2=O)cc1`, the IC50 in the assay with HL-60 [1], in the assay with CHO and in the assay with L1210 [2] was 1.5 to 23.5 µM throughout.
For `O=C(N/N=C/c1ccccc1)c1cn(C2CC2)c2cc(N/N=C/c3ccccc3)c(F)cc2c1=O`, the half-inhibitory concentration (IC50) in the assay with HL-60 [1], with CHO and in the assay on L1210 [2] was 1.5 to 23.5 µM throughout.
Consider `COc1cc(/C=N/NC(=O)c2cn(C3CC3)c3cc(N/N=C/c4cc(OC)c(OC)c(OC)c4)c(F)cc3c2=O)cc(OC)c1OC`, for which the IC50 in the assay with HL-60 [1], with CHO and in the assay with L1210 [2] was 1.5 to 23.5 µM in each case.
Turning to `CCn1cc(C(=O)N/N=C/c2ccc(O)c(OC)c2)c(=O)c2cc(F)c(N3CCNCC3)cc21`, the half-maximal inhibitory concentration (IC50) in the assay on L1210 [3], with Hep 3B2, with SMMC-7721 and in the assay with HL-60 [4] was 1.4 to 52.3 µM each time.
For `COc1cc(/C=N/NC(=O)c2cn(C3CC3)c3cc(N/N=C/c4ccc(O)c(OC)c4)c(F)cc3c2=O)ccc1O`, the half-inhibitory concentration (IC50) in the assay on HL-60 [1], in the assay with CHO and in the assay on L1210 [2] was 1.5 to 2.8 µM in each case.
Turning to `CCN1CCN(c2cc3c(nc2F)c(=O)c(-c2nn4c(-c5cn(C6CC6)c6cc(N7CCN(C)CC7)c(F)cc6c5=O)nnc4s2)cn3C2CC2)CC1`, the IC50 with HL-60 [1], in the assay with CHO and in the assay on L1210 [2] was 0.12 to 5.2 µM throughout.
For the compound `CC1COc2c(N3CCN(C)CC3)c(F)cc3c(=O)c(-c4nn5c(-c6cn(C7CC7)c7cc(N8CCNCC8)c(F)cc7c6=O)nnc5s4)cn1c23` (stereo not drawn), the IC50 with HL-60 [1], in the assay with CHO and in the assay with L1210 [2] was 14.2 to 23.7 µM each time.
On to `CC1COc2c(N3CCN(C)CC3)c(F)cc3c(=O)c(-c4nnc(N/N=C/c5ccc(C(=O)O)cc5)[nH]4)cn1c23` (stereo not drawn), for which the IC50 was 1.6 µM with L1210 [3], 1.4 to 52.3 µM in the assay on Hep 3B2, 1.4 µM with SMMC-7721 and 4.2 µM in the assay on HL-60 [4].
Turning to `CCN1CCN(c2cc3c(cc2F)c(=O)c(-c2nn4c(-c5cn(C6CC6)c6cc(N7CCN(C)CC7)c(F)cc6c5=O)nnc4s2)nn3C2CC2)CC1`, the IC50 with HL-60 [1], in the assay on CHO and in the assay on L1210 [2] was 0.12 to 5.2 µM throughout.
As for `CCN1CCN(c2cc3c(cc2F)c(=O)c(-c2nnc4sc(-c5cn(C6CC6)c6cc(N7CCNCC7)c(F)cc6c5=O)nn24)cn3C2CC2)CC1`, the concentration for half-maximal inhibition (IC50) in the assay with HL-60 [1], in the assay with CHO and with L1210 [2] was 0.12 to 5.2 µM throughout.
Take `CCn1cc(C(=O)N/N=C/c2ccccc2OC)c(=O)c2cc(F)c(N3CCNCC3)cc21`: the IC50 in the assay on L1210 [3], in the assay with Hep 3B2, with SMMC-7721 and in the assay on HL-60 [4] was 1.4 to 52.3 µM throughout.
For the compound `CCn1cc(C(=O)N/N=C/c2ccc(F)cc2)c(=O)c2cc(F)c(N3CCNCC3)cc21`, the IC50 with L1210 [3], in the assay on Hep 3B2, with SMMC-7721 and in the assay with HL-60 [4] was 1.4 to 52.3 µM in each case.
`CCN1CCN(c2cc3c(cc2F)c(=O)c(-c2nnc4sc(-c5cn(CC)c6cc(N7CCN(C)CC7)c(F)cc6c5=O)nn24)cn3C2CC2)CC1`: the half-maximal inhibitory concentration (IC50) in the assay with HL-60 [1], in the assay on CHO and with L1210 [2] was 0.12 to 5.2 µM each time.
For the compound `CN1CCN(c2cc3c(cc2F)c(=O)c(-c2nnc4sc(-c5cn(C6CC6)c6nc(N7CCN(C)CC7)c(F)cc6c5=O)nn24)cn3C2CC2)CC1`, the half-maximal inhibitory concentration (IC50) with HL-60 [1], with CHO and in the assay with L1210 [2] was 0.12 to 5.2 µM throughout.
In the case of `CCn1cc(C(=O)N/N=C/c2ccccc2O)c(=O)c2cc(F)c(N3CCNCC3)cc21`, the IC50 with L1210 [3], with Hep 3B2, in the assay with SMMC-7721 and in the assay on HL-60 [4] was 1.4 to 52.3 µM in each case.
On to `COc1ccccc1/C=N/NC(=O)c1cn(C2CC2)c2cc(N/N=C/c3ccccc3OC)c(F)cc2c1=O`, for which the half-maximal inhibitory concentration (IC50) in the assay with HL-60 [1], in the assay on CHO and in the assay with L1210 [2] was 1.5 to 23.5 µM each time.
Regarding `CCn1cc(C(=O)N/N=C/c2ccc([N+](=O)[O-])cc2)c(=O)c2cc(F)c(N3CCNCC3)cc21`, the IC50 in the assay on L1210 [3], with Hep 3B2, in the assay on SMMC-7721 and in the assay on HL-60 [4] was 1.4 to 52.3 µM each time.
In the case of `CN1CCN(c2cc3c(nc2F)c(=O)c(-c2nnc4sc(-c5cn(C6CC6)c6cc(N7CCNCC7)c(F)cc6c5=O)nn24)cn3C2CC2)CC1`, the IC50 with HL-60 [1], in the assay on CHO and with L1210 [2] was 0.12 to 5.2 µM in each case.
For the compound `COc1cc(/C=N/Nc2nnc(-c3cn4c5c(c(N6CCN(C)CC6)c(F)cc5c3=O)OCC4C)[nH]2)cc(OC)c1OC` (stereo not drawn), the concentration for half-maximal inhibition (IC50) in the assay on L1210 [3], with Hep 3B2, in the assay with SMMC-7721 and in the assay with HL-60 [4] was 1.4 to 52.3 µM throughout.
Regarding `O=C(N/N=C/c1ccc(Cl)cc1)c1cn(C2CC2)c2cc(N/N=C/c3ccc(Cl)cc3)c(F)cc2c1=O`, the IC50 in the assay on HL-60 [1], in the assay on CHO and in the assay with L1210 [2] was 1.5 to 23.5 µM in each case.
Turning to `C[C@H]1COc2c(N3CCN(C)CC3)c(F)cc3c(=O)c(-c4nn5c(-c6cn(C7CC7)c7cc(N8CCN(C)CC8)c(F)cc7c6=O)nnc5s4)cn1c23`, the 50% inhibitory concentration (IC50) in the assay with HL-60 [1], in the assay on CHO and in the assay with L1210 [2] was 0.12 to 5.2 µM throughout.
As to `O=C(N/N=C/c1ccc([N+](=O)[O-])cc1)c1cn(C2CC2)c2cc(N/N=C/c3ccc([N+](=O)[O-])cc3)c(F)cc2c1=O`, the IC50 with HL-60 [1], with CHO and in the assay on L1210 [2] was 1.5 to 23.5 µM throughout.
`O=c1c(-c2nn3c(-c4cn(C5CC5)c5cc(N6CCNCC6)c(F)cc5c4=O)nnc3s2)cn(C2CC2)c2cc(N3CCNCC3)c(F)cc12`: the concentration for half-maximal inhibition (IC50) with HL-60 [1], with CHO and with L1210 [2] was 0.12 to 5.2 µM in each case.
On to `CCn1cc(C(=O)N/N=C/c2ccc(Cl)cc2)c(=O)c2cc(F)c(N3CCNCC3)cc21`, for which the half-inhibitory concentration (IC50) in the assay on L1210 [3], in the assay on Hep 3B2, in the assay on SMMC-7721 and with HL-60 [4] was 1.4 to 52.3 µM each time.
In the case of `CCn1cc(C(=O)N/N=C/c2ccccc2)c(=O)c2cc(F)c(N3CCNCC3)cc21`, the IC50 with L1210 [3], in the assay on Hep 3B2, in the assay on SMMC-7721 and in the assay with HL-60 [4] was 1.4 to 52.3 µM throughout.
In the case of `CCn1cc(C(=O)N/N=C/c2cc(OC)c(OC)c(OC)c2)c(=O)c2cc(F)c(N3CCNCC3)cc21`, the IC50 in the assay on L1210 [3], with Hep 3B2, in the assay on SMMC-7721 and in the assay with HL-60 [4] was 1.4 to 52.3 µM throughout.
Take `CC1COc2c(N3CCN(C)CC3)c(F)cc3c(=O)c(-c4nn5c(-c6cn(C7CC7)c7cc(N8CCN(C)CC8)c(F)cc7c6=O)nnc5s4)cn1c23` (stereo not drawn): the half-maximal inhibitory concentration (IC50) with HL-60 [1], in the assay with CHO and in the assay with L1210 [2] was 14.2 to 23.7 µM in each case.
`CCN1CCN(c2cc3c(cc2F)c(=O)c(-c2nn4c(-c5cn(C6CC6)c6cc(N7CCN(CC)CC7)c(F)cc6c5=O)nnc4s2)cn3C2CC2)CC1`: the half-inhibitory concentration (IC50) with HL-60 [1], in the assay on CHO and with L1210 [2] was 0.12 to 5.2 µM in each case.
Consider `CCN1CCN(c2cc3c(cc2F)c(=O)c(-c2nnc4sc(-c5cn(C6CC6)c6cc(N7CCN(C)CC7)c(F)cc6c5=O)nn24)cn3C2CC2)CC1`, for which the IC50 in the assay with HL-60 [1], in the assay with CHO and with L1210 [2] was 0.12 to 5.2 µM each time.
On to `CCN1CCN(c2cc3c(cc2F)c(=O)c(-c2nnc4sc(-c5cn6c7c(c(N8CCN(C)CC8)c(F)cc7c5=O)OCC6C)nn24)cn3C2CC2)CC1` (stereo not drawn), for which the IC50 with HL-60 [1], with CHO and in the assay with L1210 [2] was 14.2 to 23.7 µM each time.
With `Cc1ccc(/C=N/NC(=O)c2cn(C3CC3)c3cc(N/N=C/c4ccc(C)cc4)c(F)cc3c2=O)cc1`, the IC50 in the assay on HL-60 [1], in the assay with CHO and in the assay with L1210 [2] was 1.5 to 23.5 µM each time.
As to `CCn1cc(C(=O)N/N=C/c2ccc3c(c2)OCO3)c(=O)c2cc(F)c(N3CCNCC3)cc21`, the IC50 in the assay on L1210 [3], in the assay with Hep 3B2, with SMMC-7721 and in the assay on HL-60 [4] was 1.4 to 52.3 µM in each case.
Regarding `CC1COc2c(N3CCN(C)CC3)c(F)cc3c(=O)c(-c4nnc(N/N=C/c5ccc([N+](=O)[O-])c6c5OCO6)[nH]4)cn1c23` (stereo not drawn), the IC50 in the assay with L1210 [3], in the assay with Hep 3B2, with SMMC-7721 and in the assay on HL-60 [4] was 1.4 to 52.3 µM in each case.
Regarding `CCN1CCN(c2cc3c(cc2F)c(=O)c(-c2nn4c(-c5cn(C6CC6)c6cc(N7CCNCC7)c(F)cc6c5=O)nnc4s2)cn3C2CC2)CC1`, the half-maximal inhibitory concentration (IC50) with HL-60 [1], with CHO and with L1210 [2] was 0.12 to 5.2 µM throughout.
For the compound `CCN1CCN(c2cc3c(cc2F)c(=O)c(-c2nnc4sc(-c5cn(CC)c6cc(N7CCNCC7)c(F)cc6c5=O)nn24)cn3C2CC2)CC1`, the half-inhibitory concentration (IC50) in the assay with HL-60 [1], in the assay on CHO and with L1210 [2] was 0.12 to 5.2 µM throughout.
As to `CCn1cc(C(=O)N/N=C/c2ccc(OC)cc2)c(=O)c2cc(F)c(N3CCNCC3)cc21`, the half-inhibitory concentration (IC50) with L1210 [3], in the assay on Hep 3B2, in the assay with SMMC-7721 and with HL-60 [4] was 1.4 to 52.3 µM in each case.
